The text below walks through data of patent US20250026752A1, “POSITIVE ALLOSTERIC MODULATORS OF THE MUSCARINIC ACETYLCHOLINE RECEPTOR M4” (Vanderbilt University, priority 2021, published 2025).

The experiment concerns the target T1, human mAChR M4 (Homo sapiens, UniProt P08173).
T1 construct: expressed in transfected cells; host or cells: CHO-K1 (ATCC), stably expressing hM4 and Gqi5
T1 sequence (P08173 1-479): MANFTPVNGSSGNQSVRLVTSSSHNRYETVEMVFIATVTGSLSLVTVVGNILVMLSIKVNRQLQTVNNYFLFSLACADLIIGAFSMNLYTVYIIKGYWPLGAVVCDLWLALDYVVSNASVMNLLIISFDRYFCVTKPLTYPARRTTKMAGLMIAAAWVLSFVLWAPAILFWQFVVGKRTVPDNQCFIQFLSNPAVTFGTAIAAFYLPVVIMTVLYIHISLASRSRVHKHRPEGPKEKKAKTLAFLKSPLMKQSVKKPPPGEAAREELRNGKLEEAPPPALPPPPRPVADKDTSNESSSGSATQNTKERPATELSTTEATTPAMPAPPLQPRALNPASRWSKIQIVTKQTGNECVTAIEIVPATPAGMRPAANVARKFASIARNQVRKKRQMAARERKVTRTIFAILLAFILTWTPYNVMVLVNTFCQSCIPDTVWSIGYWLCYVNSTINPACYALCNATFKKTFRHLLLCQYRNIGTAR
In words: mAChR M4 cell-based functional assay: calcium flux (Fluo-4, FDSS), positive allosteric modulator activity on the EC20 acetylcholine response, hM4-Gqi5 CHO-K1 cells. The following applies: for Emax at 30 µM: CHO-K1, human M4, % ACh maximum at 30 μM; for pEC50: human M4, PAM activity on EC20 acetylcholine response, calcium flux, read-out: Human M4 EC50. The procedure, abridged: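 CHO-K1 cells stably expressing human M4 with chimeric Gqi5, loaded with Fluo-4 AM for 50 min at 37° C. Compounds (11-point, 1:3 dilutions) added first, then an acetylcholine EC20 at 144 s; calcium read on FDSS at 1 Hz. EC50 is the half-maximal increase above the EC20 baseline, four-parameter logistic fit.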
For orientation: A change in cytosolic calcium serves as a functional read-out for many receptors and channels.

pEC50: −log10 of the molar value.

Take `Cc1nc(N2CCc3ncc(N4CCOc5ncccc54)cc3C2)c2cc(C(F)(F)F)ccc2n1` [Compound 182, 1-[6-[2-methyl-6-(trifluoromethyl)quinazolin-4-yl]-7,8-dihydro-5H-1,6-naphthyridin-3-yl]-2,3-dihydropyrido[2,3-b][1,4]oxazine]: the Emax at 30 µM was 81% and the pEC50 was 5.48.
In the case of `Cc1ccc2nc(C)nc(N3CCc4ncc(C(F)(F)F)cc4C3)c2c1` [Compound 177, 2,6-dimethyl-4-[3-(trifluoromethyl)-7,8-dihydro-5H-1,6-naphthyridin-6-yl]quinazoline], the Emax at 30 µM was determined as 92% and the pEC50 was 7.22.
Turning to `Cc1noc(C)c1-c1cnc2c(c1)CN(c1ncnc3ccc(Cl)cc13)CC2` [Compound 2, 4-[6-(6-chloroquinazolin-4-yl)-7,8-dihydro-5H-1,6-naphthyridin-3-yl]-3,5-dimethyl-isoxazole], the Emax at 30 µM was determined as 86% and the pEC50 is 7.22.
Take `CC1CCN(c2cnc3c(c2)CN(c2ncnc4ccc(F)cc24)CC3)c2ccnn21` (stereo not drawn) [Compound 227, 6-fluoro-4-(3-(7-methyl-6,7-dihydropyrazolo[1,5-a]pyrimidin-4(5H)-yl)-7,8-dihydro-1,6-naphthyridin-6(5H)-yl)quinazoline]: the Emax at 30 µM worked out at 75% and the pEC50 is 7.10.
Regarding `Cc1nc(N2CCc3ncc(-c4ccc(N(C)C)nc4)cc3C2)c2cc(Cl)ccc2n1` [Compound 49, 5-[6-(6-chloro-2-methyl-quinazolin-4-yl)-7,8-dihydro-5H-1,6-naphthyridin-3-yl]-N,N-dimethyl-pyridin-2-amine], the Emax at 30 µM worked out at 81% and the pEC50 was 5.91.
The like results for `Cc1nc(N2CCc3ncc(N4CCOc5ncccc54)cc3C2)c2cc(Cl)ccc2n1` [Compound 107, 1-[6-(6-chloro-2-methyl-quinazolin-4-yl)-7,8-dihydro-5H-1,6-naphthyridin-3-yl]-2,3-dihydropyrido[2,3-b][1,4]oxazine] were, in that order, 98% and 6.85.
The like results for `Fc1ccc2ncnc(N3CCc4ncc(N5CCO[C@@H](c6ccccc6)C5)cc4C3)c2c1` [Compound 220, (S)-4-(6-(6-fluoroquinazolin-4-yl)-5,6,7,8-tetrahydro-1,6-naphthyridin-3-yl)-2-phenylmorpholine] were, in that order, 59% and 5.71.
As for `Cc1ccc(F)cc1-c1cnc2c(c1)CN(c1ncnc3ccc(F)cc13)CC2` [Compound 293, 6-fluoro-4-(3-(5-fluoro-2-methylphenyl)-7,8-dihydro-1,6-naphthyridin-6(5H)-yl)quinazoline], the Emax at 30 µM came to 80% and the pEC50 was 6.13.
In the case of `Fc1ccc2nc(Cl)nc(N3CCc4ncc(N5CCCn6nccc65)cc4C3)c2c1` [Compound 87, 2-chloro-4-[3-(6,7-dihydro-5H-pyrazolo[1,5-a]pyrimidin-4-yl)-7,8-dihydro-5H-1,6-naphthyridin-6-yl]-6-fluoro-quinazoline], the Emax at 30 µM is 110% and the pEC50 is 6.72.
The like results for `Clc1ccc2ncnc(N3CCc4ncc(-c5ccc(C6CC6)nc5)cc4C3)c2c1` [Compound 42, 6-chloro-4-[3-(6-cyclopropyl-3-pyridyl)-7,8-dihydro-5H-1,6-naphthyridin-6-yl]quinazoline] were, in that order, 72% and 6.42.
On to `Cc1nc(N2CCc3ncc(C(F)(F)F)cc3C2)c2cc(Cl)ccc2n1` [Compound 134, 6-chlroo-2-methyl-4-[3-(trifluoromethyl)-7,8-dihydro-5H-1,6-naphthyridin-6-yl]quinazoline], for which the Emax at 30 µM was determined as 75% and the negative-log EC50 (pEC50) is 7.05.
For the compound `Cc1ccc(Oc2cnc3c(c2)CN(c2ncnc4ccc(Cl)cc24)CC3)c(F)c1` [Compound 145, 6-chloro-4-[3-(2-fluoro-4-methyl-phenoxy)-7,8-dihydro-5H-1,6-naphthyridin-6-yl]quinazoline], the Emax at 30 µM turned out to be 64% and the pEC50 is 5.32.
In the case of `C[C@@H]1CN(c2ncnc3ccc(F)cc23)Cc2cc(N3CCOCC3)cnc21` [Compound 259, (R)-4-(6-(6-fluoroquinazolin-4-yl)-8-methyl-5,6,7,8-tetrahydro-1,6-naphthyridin-3-yl)morpholine], the Emax at 30 µM was determined as 91% and the pEC50 is 6.70.
`c1cnc2nc(NC3CCOC3)nc(N3CCc4ncc(N5CCCn6nccc65)cc4C3)c2c1` (stereo not drawn) [Compound 245, 4-(3-(6,7-dihydropyrazolo[1,5-a]pyrimidin-4(5H)-yl)-7,8-dihydro-1,6-naphthyridin-6(5H)-yl)-N-(tetrahydrofuran-3-yl)pyrido[2,3-d]pyrimidin-2-amine]: the Emax at 30 µM amounted to 80% and the pEC50 was 6.66.
Consider `Cn1nc(C(F)(F)F)cc1-c1cnc2c(c1)CN(c1ncnc3cc(F)c(F)cc13)CC2` [Compound 271, 6,7-difluoro-4-(3-(1-methyl-3-(trifluoromethyl)-1H-pyrazol-5-yl)-7,8-dihydro-1,6-naphthyridin-6(5H)-yl)quinazoline], for which the Emax at 30 µM stood at 80% and the negative logarithm of the EC50 (pEC50) was 6.02.
On to `COc1ccc2ncnc(N3CCc4ncc(N5CCOc6ncccc65)cc4C3)c2c1` [Compound 79, 1-[6-(6-methoxyquinazolin-4-yl)-7,8-dihydro-5H-1,6-naphthyridin-3-yl]-2,3-dihydropyrido[2,3-b][1,4]oxazine], for which the Emax at 30 µM was determined as 105% and the pEC50 is 6.60.
Turning to `Fc1ccc2nc(N3CCCC3)nc(N3CCc4ncc(C(F)(F)F)cc4C3)c2c1` [Compound 195, 6-fluoro-2-pyrrolidin-1-yl-4-[3-(trifluoromethyl)-7,8-dihydro-5H-1,6-naphthyridin-6-yl]quinazoline], the Emax at 30 µM was found to be 95% and the pEC50 is 6.14.
Take `Cc1noc(C)c1-c1cnc2c(c1)CN(c1nc(Cl)nc3ccc(F)cc13)CC2` [Compound 29, 4-[6-(2-chloro-6-fluoro-quinazolin-4-yl)-7,8-dihydro-5H-1,6-naphthyridin-3-yl]-3,5-dimethyl-isoxazole]: the Emax at 30 µM stood at 97% and the pEC50 is 6.59.
For the compound `Cc1nc(N2CCc3ncc(-c4ccnn4C4COC4)cc3C2)c2cc(Cl)ccc2n1` [Compound 255, 6-chloro-2-methyl-4-(3-(1-(oxetan-3-yl)-1H-pyrazol-5-yl)-7,8-dihydro-1,6-naphthyridin-6(5H)-yl)quinazoline], the Emax at 30 µM was determined as 76% and the pEC50 was 6.21.
For the compound `Fc1ccc2nc(N3CCOc4ncccc43)nc(N3CCc4ncc(C(F)(F)F)cc4C3)c2c1` [Compound 198, 1-[6-fluoro-4-[3-(trifluoromethyl)-7,8-dihydro-5H-1,6-naphthyridin-6-yl]quinazolin-2-yl]-2,3-dihydropyrido[2,3-b][1,4]oxazine], the Emax at 30 µM came out at 94% and the pEC50 was 6.17.
Consider `Cc1ccc(F)c(Oc2cnc3c(c2)CN(c2ncnc4ccc(F)cc24)CC3)c1` [Compound 148, 6-fluoro-4-[3-(2-fluoro-5-methyl-phenoxy)-7,8-dihydro-5H-1,6-naphthyridin-6-yl]quinazoline], for which the Emax at 30 µM was found to be 88% and the pEC50 was 6.12.
The like results for `Cc1ncc(-c2cnc3c(c2)CN(c2nc(Cl)nc4ncccc24)CC3)s1` [Compound 35, 5-[6-(2-chloropyrido[2,3-d]pyrimidin-4-yl)-7,8-dihydro-5H-1,6-naphthyridin-3-yl]-2-methyl-thiazole] were, in that order, 57% and 6.21.
With `Fc1cc2ncnc(N3CCc4ncc(Nc5cccnc5F)cc4C3)c2cc1F` [Compound 243, 6-(6,7-difluoroquinazolin-4-yl)-N-(2-fluoropyridin-3-yl)-5,6,7,8-tetrahydro-1,6-naphthyridin-3-amine], the Emax at 30 µM is 91% and the pEC50 was 7.15.
`FC(F)(F)c1cnc2c(c1)CN(c1nc(Cl)nc3ccc(C(F)(F)F)cc13)CC2` [Compound 135, 2-chloro-6-(trifluoromethyl)-4-[3-(trifluoromethyl)-7,8-dihydro-5H-1,6-naphthyridin-6-yl]quinazoline]: the Emax at 30 µM was determined as 91% and the pEC50 is 5.78.
As to `Fc1cc2ncnc(N3CCc4ncc(N5CCCn6nc(C(F)(F)F)cc65)cc4C3)c2cc1F` [Compound 278, 6,7-difluoro-4-(3-(2-(trifluoromethyl)-6,7-dihydropyrazolo[1,5-a]pyrimidin-4(5H)-yl)-7,8-dihydro-1,6-naphthyridin-6(5H)-yl)quinazoline], the Emax at 30 µM was found to be 76% and the pEC50 was 6.39.
`Fc1cc2ncnc(N3CCc4ncc(C5CC5)cc4C3)c2cc1F` [Compound 162, 4-(3-cyclopropyl-7,8-dihydro-5H-1,6-naphthyridin-6-yl)-6,7-difluoro-quinazoline]: the Emax at 30 µM is 88% and the pEC50 is 7.22.
The like results for `COc1nc(N2CCc3ncc(C(F)(F)F)cc3C2)c2cc(C)ccc2n1` [Compound 179, 2-methoxy-6-methyl-4-[3-(trifluoromethyl)-7,8-dihydro-5H-1,6-naphthyridin-6-yl]quinazoline] were, in that order, 98% and 6.47.

As a reminder, the Emax is the size of the effect at its maximum, as opposed to the concentration needed. By pEC50 is commonly meant the negative decadic logarithm of the EC50, by convention in mol/L.
